# Source: ChEMBL document CHEMBL1201862, “PubChem BioAssay data set” (2004)
#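 Five compound concentrations were applied to cells in 96-well plates for 48 hours; endpoints were derived by simple linear interpolation of the resulting dose-response curve. GI50 = concentration required for 50% inhibition of growth.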 Active and inactive are the calls of the source. Cut-off read from the data, not from the text of the source: active = GI50 up to about 1.1 µM and inactive = higher.
# Assays:
# Experiment in all cases: NCI-60 cell line screen, 48 h
# IGROV-1 = tested on: IGROV-1
# RPMI-8226 = tested on: RPMI-8226
# OVCAR-5 = tested on: OVCAR-5
# SK-MEL-2 = tested on: SK-MEL-2
# OVCAR-3 = tested on: OVCAR-3
# EKVX = tested on: EKVX
# LOX IMVI = tested on: LOX IMVI
# HT-29 = tested on: HT-29
# KM12 = tested on: KM12
# HCT-116 = tested on: HCT-116
# UACC-257 = tested on: UACC-257
# HCT-15 = tested on: HCT-15
# PC-3 = tested on: PC-3
# SNB-75 = tested on: SNB-75
# A498 = tested on: A498
# ACHN = tested on: ACHN
# RXF 393 = tested on: RXF 393
# NCI-H522 = tested on: NCI-H522
# HL-60 = tested on: HL-60
# CCRF-CEM = tested on: CCRF-CEM
SMILES,GI50 (IGROV-1),GI50 (RPMI-8226),GI50 (OVCAR-5),GI50 (SK-MEL-2),GI50 (OVCAR-3),GI50 (EKVX),GI50 (LOX IMVI),GI50 (HT-29),GI50 (KM12),GI50 (HCT-116),GI50 (UACC-257),GI50 (HCT-15) [µM],GI50 (PC-3),GI50 (SNB-75),GI50 (A498),GI50 (ACHN),GI50 (RXF 393),GI50 (NCI-H522),GI50 (HL-60),GI50 (CCRF-CEM)
Cc1cc2c(c(/C=N/c3ccc([N+](=O)[O-])cc3)c1)OC1(C=C2)Oc2ccccc2C(=O)N1C (stereo not given),18.8 µM (inactive),19.3 µM (inactive),28.6 µM (inactive),24.8 µM (inactive),29.4 µM (inactive),13.6 µM (inactive),12.8 µM (inactive),18.2 µM (inactive),20 µM (inactive),14.6 µM (inactive),21.2 µM (inactive),17.9,18 µM (inactive),14.6 µM (inactive),16.8 µM (inactive),14.8 µM (inactive),18.5 µM (inactive),21.5 µM (inactive),23.2 µM (inactive),12.2 µM (inactive)
CC1(C)N/C(=C\[N+](=O)[O-])C(C)(C)N1O,> 10 µM (inactive),> 10 µM (inactive),> 10 µM (inactive),> 10 µM (inactive),> 10 µM (inactive),> 10 µM (inactive),> 10 µM (inactive),> 10 µM (inactive),> 10 µM (inactive),> 10 µM (inactive),> 10 µM (inactive),> 10,> 10 µM (inactive),> 10 µM (inactive),> 10 µM (inactive),> 10 µM (inactive),> 10 µM (inactive),> 10 µM (inactive),> 10 µM (inactive),> 10 µM (inactive)
Cc1cc(S(=O)(=O)Nc2nc(N)nc(N(C)C)n2)c(S)cc1Cl,> 10 µM (inactive),> 10 µM (inactive),> 10 µM (inactive),> 10 µM (inactive),> 10 µM (inactive),> 10 µM (inactive),> 10 µM (inactive),> 10 µM (inactive),> 10 µM (inactive),> 10 µM (inactive),> 10 µM (inactive),> 10,> 10 µM (inactive),> 10 µM (inactive),> 10 µM (inactive),> 10 µM (inactive),> 10 µM (inactive),> 10 µM (inactive),> 10 µM (inactive),> 10 µM (inactive)
O=C(CCCN1CCc2[nH]c3cc(F)ccc3c2C1)c1ccc(F)cc1,16.4 µM (inactive),10 µM (inactive),12.2 µM (inactive),18 µM (inactive),14.2 µM (inactive),14.8 µM (inactive),3.95 µM (inactive),6.11 µM (inactive),13.9 µM (inactive),11.8 µM (inactive),15.4 µM (inactive),16.8,12.9 µM (inactive),11 µM (inactive),11.8 µM (inactive),13.8 µM (inactive),14.4 µM (inactive),20.7 µM (inactive),11.1 µM (inactive),12 µM (inactive)
